According to US20080076757A1, “MEDICINE FOR TREATING GASTROINTESTINAL DISORDER INCLUDING IRRITABLE BOWEL SYNDROME” (priority 2003, published 2008):

What was measured:
depression = experiment: Treatment of recurrent depression in the patient of Example 4; format: in vivo, human; details: after several weeks of the SSRI anti-depressant
[1] = system: diarrhea-predominant irritable bowel syndrome (D-IBS); experiment: Treatment of spinal-injury patients presenting diarrhea-predominant irritable bowel syndrome (case Examples 1, 3-6)
Procedure: The complaints include diarrhea-predominant irritable bowel syndrome (D-IBS, awake and sleeping).
The patient is treated with a total daily dose of medicine, which includes 25 mg of tricyclic antidepressant (imipramine hydrochloride) and 300 mg of stool softener (docusate sodium).

muscarinic receptors = experiment: Effect on muscarinic receptors and bowels (statement of the inventor); design: species or system human
[2] = system: constipation-predominant IBS (C-IBS); details: patients with C-IBS; cited from earlier work

With CNCCC(Oc1ccc(C(F)(F)F)cc1)c1ccccc1.Cl (centres unmarked) [Prozac®] the depression symptoms (depression) was “begins to obtain relief from the depression symptoms”.

For CN(C)CCCN1c2ccccc2CCc2ccccc21.O=C(O)c1cc2ccccc2c(Cc2c(O)c(C(=O)O)cc3ccccc23)c1O [imipramine pamoate, 5-[3-(dimethylamino)propyl]-10,11-dihydro-5H-dibenzazepine 4,4-methlyenebis-(3-hydroxyl-2-napthoate)], the “control of bladder and bowel functions” value ([1]; Example 3: person, L5-S1 degenerative disc disease, 75 mg/day imipramine pamoate alone, oral, after several days) was “full control of bladder and bowel functions” and the adverse effect ([1]; Example 3, imipramine pamoate 75 mg/day without stool softener) was “develops constipation”.

With CN(C)CCCN1c2ccccc2CCc2ccccc21 [imipramine, 5-[3-(dimethylamino)propyl]-10,11-dihydro-5H-dibenzazepine] the muscarinic receptors affected (muscarinic receptors) was “primarily affects the M2 and M3 muscarinic receptors”.

In the case of C=C1CCC2(O)C3Cc4ccc(OC5OC(C(=O)O)C(O)C(O)C5O)c5c4C2(CCN3CC2CC2)C1O5 (centres unmarked) [nalmefene glucuronide], the “abdominal pain or bloating” value [2] is listed as “did not reduce abdominal pain or bloating”, the stool consistency [2] is listed as “stool consistency was not improved” and the stool frequency [2] is listed as “increased stool frequency”. The transit time [2] was “decreased transit time”.
